# Test results: ChEMBL document CHEMBL4665836, “Overcoming β-Lactam resistance in Pseudomonas aeruginosa using non-canonical tobramycin-based antibiotic adjuvants” (2020)
# Assays:
# Format in all cases: functional
# Pseudomonas aeruginosa [1] = assay: Potentiation of ceftazidime-induced antibacterial activity against carbapenem-resistant Pseudomonas aeruginosa 86052 clinical isolate assessed as fold reduction in ceftazidime MIC at 8 uM in presence of beta-lactamase inhibitor, avi-bactam
# Pseudomonas aeruginosa [2] = assay: Potentiation of aztreonam-induced antibacterial activity against carbapenem-resistant Pseudomonas aeruginosa 86052 clinical isolate assessed as fold reduction in aztreonam MIC at 8 uM in presence of beta-lactamase inhibitor, avi-bactam
# Pseudomonas aeruginosa [3] = assay: Potentiation of imipenem-induced antibacterial activity against carbapenem-resistant Pseudomonas aeruginosa 86052 clinical isolate assessed as fold reduction in imipenem MIC at 8 uM in presence of beta-lactamase inhibitor, rele-bactam
# Pseudomonas aeruginosa [4] = assay: Potentiation of aztreonam-induced antibacterial activity against carbapenem-resistant Pseudomonas aeruginosa 108590 clinical isolate assessed as fold reduction in aztreonam MIC at 8 uM in presence of beta-lactamase inhibitor, avi-bactam
# Pseudomonas aeruginosa [5] = assay: Potentiation of aztreonam-induced antibacterial activity against carbapenem and colistin-resistant Pseudomonas aeruginosa 101243 clinical isolate assessed as aztreonam MIC at 8 uM by checkerboard assay (reference value: 32 ug/ml)
# Pseudomonas aeruginosa [6] = assay: Potentiation of aztreonam-induced antibacterial activity against carbapenem-resistant Pseudomonas aeruginosa 88949 clinical isolate assessed as aztreonam MIC at 8 uM by checkerboard assay (reference value: 32 ug/ml)
# Pseudomonas aeruginosa [7] = assay: Antibacterial activity against Pseudomonas aeruginosa PAO200 harboring mexAB-oprM efflux deficient mutant
# Pseudomonas aeruginosa [8] = assay: Potentiation of imipenem-induced antibacterial activity against carbapenem and colistin-resistant Pseudomonas aeruginosa 114228 clinical isolate assessed as imipenem MIC at 8 uM by checkerboard assay (reference value: 8 ug/ml)
# Pseudomonas aeruginosa [9] = assay: Potentiation of ceftazidime-induced antibacterial activity against carbapenem-resistant Pseudomonas aeruginosa 86052 clinical isolate assessed as ceftazidime MIC at 8 uM by checkerboard assay (reference value: 64 ug/ml)
# Pseudomonas aeruginosa [10] = assay: Potentiation of ceftazidime-induced antibacterial activity against carbapenem-resistant Pseudomonas aeruginosa 101885 clinical isolate assessed as ceftazidime MIC at 8.7 uM by checkerboard assay (reference value: 8 ug/ml)
# Pseudomonas aeruginosa [11] = assay: Potentiation of ceftazidime-induced antibacterial activity against carbapenem and colistin-resistant Pseudomonas aeruginosa 101243 clinical isolate assessed as ceftazidime MIC at 8.7 uM by checkerboard assay (reference value: 64 ug/ml)
# Pseudomonas aeruginosa [12] = assay: Potentiation of aztreonam-induced antibacterial activity against carbapenem-resistant Pseudomonas aeruginosa 107092 clinical isolate assessed as aztreonam MIC at 8.7 uM by checkerboard assay (reference value: 64 ug/ml)
# Pseudomonas aeruginosa [13] = assay: Potentiation of ceftazidime-induced antibacterial activity against carbapenem-resistant Pseudomonas aeruginosa 86052 clinical isolate assessed as ceftazidime MIC at 8.7 uM by checkerboard assay (reference value: 64 ug/ml)
# Pseudomonas aeruginosa [14] = assay: Potentiation of ceftazidime-induced antibacterial activity against carbapenem-resistant Pseudomonas aeruginosa 88949 clinical isolate assessed as ceftazidime MIC at 8.7 uM by checkerboard assay (reference value: 64 ug/ml)
# Pseudomonas aeruginosa [15] = assay: Potentiation of ceftazidime-induced antibacterial activity against carbapenem-resistant Pseudomonas aeruginosa 262-101856 clinical isolate assessed as ceftazidime MIC at 8.7 uM by checkerboard assay (reference value: 16 ug/ml)
# Pseudomonas aeruginosa [16] = assay: Potentiation of ceftazidime-induced antibacterial activity against carbapenem-resistant Pseudomonas aeruginosa 259-96918 clinical isolate expressing metallo-beta-lactamase assessed as ceftazidime MIC at 8.7 uM by checkerboard assay (reference value: 512 ug/ml)
# Pseudomonas aeruginosa [17] = assay: Potentiation of aztreonam-induced antibacterial activity against carbapenem-resistant Pseudomonas aeruginosa 260-97103 clinical isolate assessed as aztreonam MIC at 8.7 uM by checkerboard assay (reference value: 64 ug/ml)
# Pseudomonas aeruginosa [18] = assay: Potentiation of ceftazidime-induced antibacterial activity against carbapenem and colistin-resistant Pseudomonas aeruginosa 91433 clinical isolate assessed as ceftazidime MIC at 8.7 uM by checkerboard assay (reference value: 4 ug/ml)
# Pseudomonas aeruginosa [19] = assay: Potentiation of aztreonam-induced antibacterial activity against carbapenem-resistant Pseudomonas aeruginosa PAO750 harboring and mexAB-oprM/mexCD-oprJ/mexEF-oprN/mexJK/mexXY/opmH efflux deficient mutant assessed as aztreonam MIC at 8.7 uM by checkerboard assay (reference value: 0.5 ug/ml)
# Pseudomonas aeruginosa [20] = assay: Potentiation of aztreonam-induced antibacterial activity against carbapenem-resistant Pseudomonas aeruginosa 101885 clinical isolate assessed as aztreonam MIC at 8.7 uM by checkerboard assay (reference value: 16 ug/ml)
# Pseudomonas aeruginosa [21] = assay: Potentiation of aztreonam-induced antibacterial activity against carbapenem-resistant Pseudomonas aeruginosa 88949 clinical isolate assessed as aztreonam MIC at 8.7 uM by checkerboard assay (reference value: 32 ug/ml)
# Pseudomonas aeruginosa [22] = assay: Potentiation of ceftazidime-induced antibacterial activity against carbapenem-resistant Pseudomonas aeruginosa 109084 clinical isolate assessed as ceftazidime MIC at 8.7 uM by checkerboard assay (reference value: 64 ug/ml)
# Pseudomonas aeruginosa [23] = assay: Potentiation of aztreonam-induced antibacterial activity against wild-type Pseudomonas aeruginosa PAO1 assessed as aztreonam MIC at 8.7 uM by checkerboard assay (reference value: 4 ug/ml)
# Pseudomonas aeruginosa [24] = assay: Potentiation of ceftazidime-induced antibacterial activity against carbapenem-resistant Pseudomonas aeruginosa 108590 clinical isolate assessed as ceftazidime MIC at 8.7 uM by checkerboard assay (reference value: 32 ug/ml)
# Pseudomonas aeruginosa [25] = assay: Potentiation of aztreonam-induced antibacterial activity against carbapenem-resistant Pseudomonas aeruginosa 264-104354 clinical isolate assessed as aztreonam MIC at 8.7 uM by checkerboard assay (reference value: 32 ug/ml)
# Pseudomonas aeruginosa [26] = assay: Potentiation of aztreonam-induced antibacterial activity against carbapenem-resistant Pseudomonas aeruginosa 109084 clinical isolate assessed as aztreonam MIC at 8.7 uM by checkerboard assay (reference value: 64 ug/ml)
# Pseudomonas aeruginosa [27] = assay: Potentiation of ceftazidime-induced antibacterial activity against carbapenem-resistant Pseudomonas aeruginosa PAO200 harboring and mexAB-oprM efflux deficient mutant assessed as ceftazidime MIC at 8.7 uM by checkerboard assay (reference value: 1 ug/ml)
# Pseudomonas aeruginosa [28] = assay: Potentiation of aztreonam-induced antibacterial activity against carbapenem-resistant Pseudomonas aeruginosa 259-96918 clinical isolate expressing metallo-beta-lactamase assessed as aztreonam MIC at 8.7 uM by checkerboard assay (reference value: 32 ug/ml)
# Pseudomonas aeruginosa [29] = assay: Potentiation of aztreonam-induced antibacterial activity against carbapenem and colistin-resistant Pseudomonas aeruginosa 91433 clinical isolate assessed as aztreonam MIC at 8.7 uM by checkerboard assay (reference value: 16 ug/ml)
# Pseudomonas aeruginosa [30] = assay: Potentiation of ceftazidime-induced antibacterial activity against carbapenem-resistant Pseudomonas aeruginosa 264-104354 clinical isolate assessed as ceftazidime MIC at 8.7 uM by checkerboard assay (reference value: 128 ug/ml)
# Pseudomonas aeruginosa [31] = assay: Potentiation of aztreonam-induced antibacterial activity against carbapenem-resistant Pseudomonas aeruginosa PAO200 harboring and mexAB-oprM efflux deficient mutant assessed as aztreonam MIC at 8.7 uM by checkerboard assay (reference value: 0.25 ug/ml)
compound,measurement,setting,value
NC[C@H]1O[C@H](O[C@H]2[C@H](OCCCCc3cn(CCCCO[C@@H]4[C@@H](O[C@H]5O[C@H](CO)[C@@H](O)[C@H](N)[C@H]5O)[C@H](N)C[C@H](N)[C@H]4O[C@H]4O[C@H](CN)[C@@H](O)C[C@H]4N)nn3)[C@@H](O[C@H]3O[C@H](CO)[C@@H](O)[C@H](N)[C@H]3O)[C@H](N)C[C@@H]2N)[C@H](N)C[C@@H]1O.O=C(O)C(F)(F)F.O=C(O)C(F)(F)F.O=C(O)C(F)(F)F.O=C(O)C(F)(F)F.O=C(O)C(F)(F)F.O=C(O)C(F)(F)F.O=C(O)C(F)(F)F.O=C(O)C(F)(F)F.O=C(O)C(F)(F)F.O=C(O)C(F)(F)F,fold change (FC),Pseudomonas aeruginosa [1],16
same,fold change (FC),Pseudomonas aeruginosa [2],16
same,fold change (FC),Pseudomonas aeruginosa [3],16
same,fold change (FC),Pseudomonas aeruginosa [4],16
same,MIC,Pseudomonas aeruginosa [5],16 µg/mL
same,MIC,Pseudomonas aeruginosa [6],32 µg/mL
same,MIC,Pseudomonas aeruginosa [7],> 128 µg/mL
same,MIC,Pseudomonas aeruginosa [8],0.5 µg/mL
same,MIC,Pseudomonas aeruginosa [9],64 µg/mL
Cl.Cl.Cl.Cl.Cl.NC[C@H]1O[C@H](O[C@H]2[C@H](OCCCCCCCCCCCCN3CCN(c4cc5c(cc4F)c(=O)c(C(=O)O)cn5C4CC4)CC3)[C@@H](O)[C@H](N)C[C@@H]2N)[C@H](N)C[C@@H]1O,fold change (FC),Pseudomonas aeruginosa [1],16
same,fold change (FC),Pseudomonas aeruginosa [2],16
same,fold change (FC),Pseudomonas aeruginosa [3],16
same,fold change (FC),Pseudomonas aeruginosa [4],16
same,MIC,Pseudomonas aeruginosa [5],0.25 µg/mL
same,MIC,Pseudomonas aeruginosa [6],8 µg/mL
same,MIC,Pseudomonas aeruginosa [7],4 µg/mL
same,MIC,Pseudomonas aeruginosa [8],1 µg/mL
same,MIC,Pseudomonas aeruginosa [9],4 µg/mL
N=C(N)NC[C@H]1O[C@H](O[C@H]2[C@H](OCCCCCCCCCCCCN3CCN(c4cc5c(cc4F)c(=O)c(C(=O)O)cn5C4CC4)CC3)[C@@H](O[C@H]3O[C@H](CO)[C@@H](O)[C@H](NC(=N)N)[C@H]3O)[C@H](NC(=N)N)C[C@@H]2NC(=N)N)[C@H](NC(=N)N)C[C@@H]1O.O=C(O)C(F)(F)F.O=C(O)C(F)(F)F.O=C(O)C(F)(F)F.O=C(O)C(F)(F)F.O=C(O)C(F)(F)F.O=C(O)C(F)(F)F,fold change (FC),Pseudomonas aeruginosa [1],16
same,fold change (FC),Pseudomonas aeruginosa [2],16
same,fold change (FC),Pseudomonas aeruginosa [3],16
same,fold change (FC),Pseudomonas aeruginosa [4],16
same,MIC,Pseudomonas aeruginosa [5],4 µg/mL
same,MIC,Pseudomonas aeruginosa [6],32 µg/mL
same,MIC,Pseudomonas aeruginosa [7],16 µg/mL
same,MIC,Pseudomonas aeruginosa [8],1 µg/mL
same,MIC,Pseudomonas aeruginosa [9],32 µg/mL
Cl.Cl.Cl.Cl.Cl.Cl.NC[C@H]1O[C@H](O[C@H]2[C@H](OCCCCCCCCCCCCN3CCN(c4cc5c(cc4F)c(=O)c(C(=O)O)cn5C4CC4)CC3)[C@@H](O[C@H]3O[C@H](CO)[C@@H](O)[C@H](N)[C@H]3O)[C@H](N)C[C@@H]2N)[C@H](N)C[C@@H]1O,fold change (FC),Pseudomonas aeruginosa [1],16
same,fold change (FC),Pseudomonas aeruginosa [2],16
same,fold change (FC),Pseudomonas aeruginosa [3],16
same,fold change (FC),Pseudomonas aeruginosa [4],16
same,MIC,Pseudomonas aeruginosa [5],4 µg/mL
same,MIC,Pseudomonas aeruginosa [6],8 µg/mL
same,MIC,Pseudomonas aeruginosa [7],4 µg/mL
same,MIC,Pseudomonas aeruginosa [8],2 µg/mL
same,MIC,Pseudomonas aeruginosa [9],32 µg/mL
NC[C@H]1O[C@H](O[C@H]2[C@H](OCCCCCCCCN3CCCNCCNCCCNCC3)[C@@H](O[C@H]3O[C@H](CO)[C@@H](O)[C@H](N)[C@H]3O)[C@H](N)C[C@@H]2N)[C@H](N)C[C@@H]1O.O=C(O)C(F)(F)F.O=C(O)C(F)(F)F.O=C(O)C(F)(F)F.O=C(O)C(F)(F)F.O=C(O)C(F)(F)F.O=C(O)C(F)(F)F.O=C(O)C(F)(F)F.O=C(O)C(F)(F)F.O=C(O)C(F)(F)F,fold change (FC),Pseudomonas aeruginosa [1],16
same,fold change (FC),Pseudomonas aeruginosa [2],16
same,MIC,Pseudomonas aeruginosa [10],1 µg/mL
same,MIC,Pseudomonas aeruginosa [11],8 µg/mL
same,fold change (FC),Pseudomonas aeruginosa [3],16
same,fold change (FC),Pseudomonas aeruginosa [4],16
same,MIC,Pseudomonas aeruginosa [12],16 µg/mL
same,MIC,Pseudomonas aeruginosa [13],64 µg/mL
same,MIC,Pseudomonas aeruginosa [14],16 µg/mL
same,MIC,Pseudomonas aeruginosa [15],4 µg/mL
same,MIC,Pseudomonas aeruginosa [16],64 µg/mL
same,MIC,Pseudomonas aeruginosa [17],8 µg/mL
same,MIC,Pseudomonas aeruginosa [18],2 µg/mL
same,MIC,Pseudomonas aeruginosa [19],0.03 µg/mL
same,MIC,Pseudomonas aeruginosa [20],0.5 µg/mL
same,MIC,Pseudomonas aeruginosa [21],16 µg/mL
same,MIC,Pseudomonas aeruginosa [7],> 128 µg/mL
same,MIC,Pseudomonas aeruginosa [22],16 µg/mL
same,MIC,Pseudomonas aeruginosa [8],8 µg/mL
same,MIC,Pseudomonas aeruginosa [23],0.25 µg/mL
same,MIC,Pseudomonas aeruginosa [24],8 µg/mL
same,MIC,Pseudomonas aeruginosa [25],8 µg/mL
same,MIC,Pseudomonas aeruginosa [26],8 µg/mL
same,MIC,Pseudomonas aeruginosa [27],0.06 µg/mL
same,MIC,Pseudomonas aeruginosa [28],4 µg/mL
same,MIC,Pseudomonas aeruginosa [29],16 µg/mL
same,MIC,Pseudomonas aeruginosa [30],32 µg/mL
same,MIC,Pseudomonas aeruginosa [31],0.02 µg/mL
NC[C@H]1O[C@H](O[C@H]2[C@H](OCCCCc3cn(CCCCO[C@@H]4[C@@H](O)[C@H](N)C[C@H](N)[C@H]4O[C@H]4O[C@H](CN)[C@@H](O)C[C@H]4N)nn3)[C@@H](O)[C@H](N)C[C@@H]2N)[C@H](N)C[C@@H]1O.O=C(O)C(F)(F)F.O=C(O)C(F)(F)F.O=C(O)C(F)(F)F.O=C(O)C(F)(F)F.O=C(O)C(F)(F)F.O=C(O)C(F)(F)F.O=C(O)C(F)(F)F.O=C(O)C(F)(F)F,fold change (FC),Pseudomonas aeruginosa [1],16
same,fold change (FC),Pseudomonas aeruginosa [2],16
same,fold change (FC),Pseudomonas aeruginosa [3],16
same,fold change (FC),Pseudomonas aeruginosa [4],16
same,MIC,Pseudomonas aeruginosa [5],8 µg/mL
same,MIC,Pseudomonas aeruginosa [6],16 µg/mL
same,MIC,Pseudomonas aeruginosa [7],> 128 µg/mL
same,MIC,Pseudomonas aeruginosa [8],4 µg/mL
same,MIC,Pseudomonas aeruginosa [9],64 µg/mL
NC[C@H]1O[C@H](O[C@H]2[C@H](OCCCCCCCCN3CCCNCCNCCCNCC3)[C@@H](O)[C@H](N)C[C@@H]2N)[C@H](N)C[C@@H]1O.O=C(O)C(F)(F)F.O=C(O)C(F)(F)F.O=C(O)C(F)(F)F.O=C(O)C(F)(F)F.O=C(O)C(F)(F)F.O=C(O)C(F)(F)F.O=C(O)C(F)(F)F.O=C(O)C(F)(F)F,fold change (FC),Pseudomonas aeruginosa [1],16
same,fold change (FC),Pseudomonas aeruginosa [2],16
same,fold change (FC),Pseudomonas aeruginosa [3],16
same,fold change (FC),Pseudomonas aeruginosa [4],16
same,MIC,Pseudomonas aeruginosa [5],2 µg/mL
same,MIC,Pseudomonas aeruginosa [6],32 µg/mL
same,MIC,Pseudomonas aeruginosa [7],> 128 µg/mL
same,MIC,Pseudomonas aeruginosa [8],8 µg/mL
same,MIC,Pseudomonas aeruginosa [9],64 µg/mL
